The values below come from ChEMBL document CHEMBL4334495, “Design and Biological Evaluation of m-Xylene Thioether-Stapled Short Helical Peptides Targeting the HIV-1 gp41 Hexameric Coiled-Coil Fusion Complex” (J Med Chem, 2019).

Series [1] relates to Human immunodeficiency virus 1. The series is described as follows: Antiviral activity against R5 tropic HIV-1 subtype-B Bal infected in human MT2 cells or CEMx174 5.25 M7 cells assessed as reduction in p24 Gag protein production measured at 4 days post-infection by ELISA. Format: functional, cell-based, HIV-1 group M. Particulars: Human immunodeficiency virus 1, Bal, 96 h.

Series [2] is described as follows: Cytotoxicity against human TZM-bl cells assessed as reduction in viability after 2 days by XTT assay. The format is cell-based.
Series [3] addresses Envelope glycoprotein gp160 (Human immunodeficiency virus 1) (UniProt Q6QLK5). The series is described as follows: Binding affinity to HIV1 GP41 using GP41 NHR derived N36 peptide at 500 uM incubated for 30 mins by size exclusion HPLC analysis. In general terms: Size exclusion chromatography separates by hydrodynamic size, large species first.
For series [4] the target is unchanged. Kind of series: Binding affinity to HIV1 GP41 using GP41 NHR derived N36 peptide assessed as formation of oligomeric complex at 100 uM incubated for 30 mins by Coomassie blue R250 staining based Native-PAGE analysis.
Series [5] has the same target. The series is described as follows: Binding affinity to HIV1 GP41 using GP41 NHR derived N36 peptide assessed as molecular weight at 150 uM incubated for 30 mins by sedimentation Velocity analysis.
Series [6] concerns Human immunodeficiency virus 1. The series is described as follows: Antiviral activity against X4 tropic HIV-1 subtype-B 3B infected in human MT2 cells or CEMx174 5.25 M7 cells assessed as reduction in p24 Gag protein production measured at 4 days post-infection by ELISA. The format is functional, cell-based, HIV-1 group M. Particulars: Human immunodeficiency virus 1, 3B, 96 h. On the technique in general: An ELISA detects its analyte on a solid surface through an enzyme-linked reagent.

Series [7] addresses Envelope glycoprotein gp160 (Human immunodeficiency virus 1) (UniProt Q6QLK5). The series is described as follows: Binding affinity to HIV1 GP41 using GP41 NHR derived N36 peptide assessed as formation of secondary structure at 10 uM incubated for 30 mins by CD spectroscopy.
Series [8] has the same target. Kind of series: Binding affinity to HIV1 GP41 using GP41 NHR derived N36 peptide assessed as melting temperature at 10 uM incubated for 30 mins by CD spectroscopy.

Active and inactive are the calls of the source. The calls are words filed in the database; no cut-off is given here. Starred links: 1 amine or outer side, 2 acyl side, 3 side chain; linkers in the order of their positions; H or OH if unused. Positions of bridges follow the written chain, without caps; N, C: chain ends. Non-standard residues stand in square brackets, D forms with d. Residues, ends and D or L forms follow the SMILES beside them. ξ: configuration not given here. mXylylene = c1cc(C[*:1])cc(C[*:2])c1; ξhCys = NC(CCS)C(=O)O

Envelope glycoprotein gp160 (Human immunodeficiency virus 1), sequence (Q6QLK5 1-814): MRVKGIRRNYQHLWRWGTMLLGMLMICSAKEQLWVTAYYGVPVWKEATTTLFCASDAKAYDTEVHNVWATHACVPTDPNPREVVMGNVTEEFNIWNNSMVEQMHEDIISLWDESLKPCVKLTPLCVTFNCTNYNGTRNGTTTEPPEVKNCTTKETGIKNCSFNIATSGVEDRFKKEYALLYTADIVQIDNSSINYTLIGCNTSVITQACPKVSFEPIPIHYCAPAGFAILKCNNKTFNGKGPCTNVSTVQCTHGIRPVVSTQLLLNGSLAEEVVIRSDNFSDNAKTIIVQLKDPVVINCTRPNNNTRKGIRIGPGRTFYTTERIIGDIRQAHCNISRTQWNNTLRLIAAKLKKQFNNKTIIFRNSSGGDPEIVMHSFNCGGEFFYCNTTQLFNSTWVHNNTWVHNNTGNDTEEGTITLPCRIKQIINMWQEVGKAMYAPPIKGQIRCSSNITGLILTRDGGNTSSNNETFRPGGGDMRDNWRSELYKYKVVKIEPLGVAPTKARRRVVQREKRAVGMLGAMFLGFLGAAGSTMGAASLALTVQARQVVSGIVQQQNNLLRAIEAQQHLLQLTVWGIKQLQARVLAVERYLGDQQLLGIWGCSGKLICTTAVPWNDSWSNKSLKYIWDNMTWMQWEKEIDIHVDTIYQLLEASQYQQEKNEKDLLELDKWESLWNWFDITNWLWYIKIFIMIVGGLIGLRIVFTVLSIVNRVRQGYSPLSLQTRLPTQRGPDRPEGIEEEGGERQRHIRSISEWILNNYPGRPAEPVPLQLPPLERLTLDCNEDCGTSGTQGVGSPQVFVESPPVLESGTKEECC

One may read the EC50 as the midpoint of the concentration-response curve. One may read the CC50 as the concentration giving 50% cytotoxicity. Turning to `CC[C@H](C)[C@H](NC(C)=O)C(=O)N[C@@H](CCC(=O)O)C(=O)N[C@@H](C)C(=O)N[C@@H](CC(C)C)C(=O)N[C@H](C(=O)NC1CCSCc2cccc(c2)CSCCC(C(=O)N[C@@H](CCC(N)=O)C(=O)N[C@@H](CCC(N)=O)C(=O)N[C@@H](CCCNC(=N)N)C(=O)N[C@@H](CCCCN)C(=O)N[C@@H](CC(N)=O)C(=O)N[C@@H](CCC(=O)O)C(=O)N[C@@H](CCC(=O)O)C(=O)N[C@@H](C)C(=O)N[C@@H](CC(C)C)C(=O)N[C@@H](CCCNC(=N)N)C(=O)N[C@@H](CCC(=O)O)C(=O)N[C@@H](CC(C)C)C(N)=O)NC(=O)[C@H](CCC(N)=O)NC(=O)[C@H](C)NC(=O)[C@H](C)NC1=O)[C@@H](C)CC` (stereo partly specified) (Ac-IEALI[ξhCys]AAQ[ξhCys]QQRKNEEALREL-NH2; linker 6-10 via mXylylene), the EC50 was 27.7 nM in series [1] and 18.4 nM in series [6]. The CC50 at 48 h in series [2] is > 800000 nM. The result in series [3], in series [4] and in series [7] was Active. Besides, the Activity in series [5] came to 18.7 kDa. Further, the Tm in series [8] was 56.9 °C.

On to `CC[C@H](C)[C@H](NC(C)=O)C(=O)N[C@@H](CCC(=O)O)C(=O)N[C@@H](C)C(=O)N[C@@H](CC(C)C)C(=O)N[C@H](C(=O)NC1CCSCc2cccc(c2)CSCCC(C(=O)N[C@@H](CCC(N)=O)C(=O)N[C@@H](CCC(N)=O)C(=O)N[C@@H](CCC(=O)O)C(=O)N[C@@H](CCCCN)C(=O)N[C@@H](CC(N)=O)C(=O)N[C@@H](CCC(=O)O)C(=O)N[C@@H](C)C(=O)N[C@@H](C)C(=O)N[C@@H](CC(C)C)C(=O)N[C@@H](CCCNC(=N)N)C(=O)N[C@@H](CCC(=O)O)C(=O)N[C@@H](CC(C)C)C(N)=O)NC(=O)[C@H](CCC(N)=O)NC(=O)[C@H](C)NC(=O)[C@H](C)NC1=O)[C@@H](C)CC` (stereo partly specified) (Ac-IEALI[ξhCys]AAQ[ξhCys]QQEKNEAALREL-NH2; linker 6-10 via mXylylene), for which the EC50 came to 69.1 nM in series [1] and 44.4 nM in series [6]. Further, the outcome in series [3], in series [4] and in series [7] was Active. In series [5], the Activity amounted to 8.4 kDa. The Tm in series [8] is 52.4 °C.

In the case of Ac-IEALIRAAQEQQEKNEAALREL-NH2, in series [8], the Tm turned out to be 48.2 °C.
